Assay results taken from patent US8883718B2, “Treating cancer” (Theryte Limited, priority 2008, dated 2014).
[ ]: non-standard residue; d: D form.

Assays:
[1] = system: MGHU-1 Human transitional bladder cancer cells; experiment: in-vitro culture of MGHU-1 bladder cancer cells, cell death observed morphologically; type: cell-based
Method: (§1) Normal diploid human fibroblasts in short term culture were unaffected (FIG. 2b). […] However, PRGPRP (SEQ ID NO: 2) is only effective at killing RT112 bladder cancer cells at a concentration of 5.0 mM. Because of concern that such high peptide doses might cause artefactual, non-specific effects, structure/function studies were carried out.
5 mM was required to produce 100% lethality in in vitro experiments on RT 112 (FIG. 2a) or MGHU-1 human bladder cancer cells. This limits the applicability of PRGPRP (SEQ ID NO: 2) to therapy even though it has selected killing activity in human cancer cells but not normal human fibroblasts.

[2] = system: Normal diploid human fibroblasts; experiment: normal diploid human fibroblasts in short term culture; type: cell-based
Method: as §1

[3] = system: RT112 human bladder cancer cells; experiment: clonogenic assay on RT112 cells; type: cell-based
Method: as §1
(§2) The first experiments were carried out on cyc-[[…]] (THR 53, (SEQ ID NO: 9)), see FIG. 4. Whilst the 96 well assays described in Example 3 are suitable for initial screening of small amounts of peptide material the long incubation periods in dense culture do themselves compromise cell viability to some extent. […] In clonogenic assays, (previously described by Warenius et al Br J Cancer (2000) 83(8), 1048-1059) single cell suspensions of 100 cells are plated in plentiful volumes of 2 ml of Ham's F12 tissue culture medium supplemented with 10% FCS and incubated for 15, 20 or 25 days. A high percentage of the plated cells (40-60% in the case of H460) go through repeated doublings to yield colonies of 200 or more cells which can be easily visualized by the naked eye and counted under a low power lens when stained by giemsa stain.

[4] = system: H460 human non-small cell lung cancer cells; experiment: clonogenic assay on H460 cells; type: cell-based
Method: as §2
The efficacy of THR53 was compared to Ac-PRGPRP-NH2 (SEQ ID NO: 2) using a clonogenic assay.

[5] = system: Cdk1 compared to Cdk4 in RT112 cells; experiment: sequential Western blots of RT112 cells after peptide exposure; type: cell-based, human; details: over 15 days
Text: Peptides were introduced at day 0 and left in-situ throughout the experiment.
In a clinical context this might provide a biomarker of therapeutic efficacy. […] Such a homogeneous therapeutic response is in marked contrast to the wide range of variability in dose response of different cancer cell lines seen with conventional chemotherapeutic agents^24. Cancer cells both underwent successful mitosis and died (FIG. 3f) or died in interphase (FIG. 7d). […] MRC-hTERT fibroblasts (FIG. 7c) and short term cultures of normal diploid human keratinocytes (FIG. 3h) were not killed by 200 μM THR53.

[6] = system: RT112 bladder cancer cells; experiment: Cell killing by cyclic peptides, RT112 (Table 2); type: cell-based, human; parameters: key: - - - = No cell killing; details: 100 μM
Method: (§3) Table 2 lists cyclic peptides including the PRGPRP (SEQ ID NO:2) sequence which have no effect on RT112 bladder cancer cells at a concentration of 100 μM.

[7] = system: Fibroblasts; experiment: Cell killing by cyclic peptides, fibroblasts (Table 2); type: cell-based; parameters: key: - - - = No cell killing
Method: as §3

[8] = system: human cancer cells; experiment: clonogenic assays of human cancer cells exposed to PRGPRP motif in cyclic amphiphilic cassettes; type: cell-based; details: FIG. 6i
Method: FIGS. 6(h) and (i) show clonogenic assays of human cancer cells exposed to the PRGPRP (SEQ ID NO: 2) motif in cyclic amphiphlic cassettes. THR53 (SEQ ID NO: 9, cyc-[[…]]); THR53C (SEQ ID NO: 23, cyc-[[…]], a control peptide); THR54 (SEQ ID NO: 10, cyc-[[…]]); THR79 (SEQ ID NO: 11, cyc-[PRGPRPvalklalklal]).
as §2
The effectiveness of cyclic peptides comprising amphiphilic sequences is further illustrated in FIGS. 6h and 6i, showing the results of a clonogenic assay using the peptides THR53 cyc-[[…]] (SEQ ID NO: 9); THR53C, cyc-[[…]] […]

[9] = system: MGHU-1 Human transitional bladder cancer cells; details: cited from earlier work
[10] = system: H460 human non-small cell lung cancer cells; experiment: MTS cell viability assay, H460 cells; type: cell-based; details: H460, 12.5 to 100 μM, 2-4 weeks
Method: (§4) The effect of these peptides was tested on both human fibroblasts and H460 human non-small cell […] cancer cells at doses in the range 12.5 to 100 μM. The peptides were tested in vitro by exposure to 100 H460 human non-small cell lung cancer cells, or short term cultures of normal human diploid fibroblasts, in 200 ul of Ham's F12 tissue culture medium supplemented with 10% FCS. Cells were set up in 100 ul on day 0 and 24 hours later a further 100 ul of the same medium containing ×2 the appropriate concentration of peptide over a range of 12.5-100 uM was added. The cells were then incubated at 37° C., 5% CO2 in an humidified incubator for 2-4 weeks.
(§5) Cell viability was measured by an MTS assay (CellTiter 96^R Non-Radioactive Cell Proliferation Assay. Promega Corporation, 2800 Woods Hollow Road, Madison Wis. 53711-5399 USA). The original form of this assay was described by Mosmann (J. Immunol. Meth. 65; 55-63. 1983) and gives a colorometric reading whose intensity depends on the conversion, by viable cells, of a tetrazolium salt into a coloured formazan which is easily quantified by colorimetric reading of a 96 well assay plate.

[11] = system: normal human diploid fibroblasts; experiment: MTS cell viability assay, fibroblasts; type: cell-based; details: 12.5 to 100 μM, 2-4 weeks
Method: as §4, §5

[12] = system: cancer cell; experiment: effect of amino acid stereochemistry on cancer cell-killing activity; type: cell-based
Text: The peptides used were: THR75 (SEQ ID NO: 24, cyc-[PRGPRPValklalklal]); THR77 (SEQ ID NO: 25, cyc-[PRGPRPValklalklaL]); THR78 (SEQ ID NO: 26, cyc-[[…]lklalklaL]; THR79 (SEQ ID NO: 11 cyc-[PRGPRPvalklalklal]). Upper case denotes the L isomer of the amino acids and lower case denotes the D isomer.
It has also been discovered that the stereochemistry of the amino acids in the peptide sequence is relevant to efficacy. Analogues of THR54 (SEQ ID NO: 10) in which certain L-amino-acids have been replaced with D-amino-acids were prepared.
This was THR79 in which was approximately 2-4 times as active as THR54.

Ac-Pro-Arg-Gly-Pro-Arg-Pro-NH2 (Ac-PRGPRP-NH2) [end-capped hexameric peptide according to WO2005/123760]
cell death observed morphologically in-vitro ([1]; 5.0 mM, 25 days after exposure): Complete cell death | concentration required to produce 100% lethality ([1]; MGHU-1, in vitro): 5 mM | effect on normal diploid human fibroblasts in short term culture ([2]; 5.0 mM): unaffected | cancer cell lethality / activity in clonogenic assay ([3]; RT112): Cancer cell lethality was confirmed | concentration effective at killing RT112 bladder cancer cells ([3]; RT112): 5.0 mM | concentration required to produce 100% lethality ([3]; RT 112, in vitro): 5 mM | effect on H460 cell survival in clonogenic assay ([4]; 1 to 10 mM concentration): limited effect | effect on H460 non-small cell lung cancer, clonogenic assay ([4]; H460): no effect | change in Cdk1 compared to Cdk4 [5]: Progressive increase

Cyc-[AAAGGGPRGPRPGGGAAA] (cyclic; Cyclic peptide; /note=“cyclic peptide”)
Cell Killing RT112 [6]: - - - | Cell Killing Fibroblasts [7]: - - -

Cyc-[GGGGPRGPRPGGGGPRGPRPVPRGPRPV] (cyclic; Cyclic peptide; /note=“cyclic peptide”)
Cell Killing RT112 [6]: - - - | Cell Killing Fibroblasts [7]: - - -

cyc-[FPPRRPGPVKLALKLALK] (cyclic; Control peptide; /note=“cyclic peptide”) [THR53C, a control peptide]
arginine-related structure function relationship in cyclic amphiphilic compounds (control peptide) [8]: structure function relationship was retained

cyc-[PRGPRPVPRGPRPVPRGPRPV] (cyclic; Cyclic peptide; /note=“cyclic peptide”) [cyclic peptide disclosed in WO2005/123760]
killing of MGHU1 cells [1]: did not kill | effect on normal fibroblasts [2]: markedly stimulate | effect on MGHU1 cells as disclosed in WO2005/123760 [9]: caused morphological changes

Ac-PRGPRPVKLALKLALKAL-NH2 [THR51, linear peptide outside the scope of the invention]
cancer cell killing (cell viability, MTS) [10]: improvement in cancer cell killing over PRGPRP | killing of fibroblasts (cell viability, MTS) [11]: equally as well killed

cyc-[PRGPRPValklalklal] (cyclo(PRGPRPV[dA][dL][dK][dL][dA][dL][dK][dL][dA][dL]); SMILES CC(C)C[C@H]1NC(=O)[C@@H](C)NC(=O)[C@H](C(C)C)NC(=O)[C@@H]2CCCN2C(=O)[C@H](CCCNC(=N)N)NC(=O)[C@@H]2CCCN2C(=O)CNC(=O)[C@H](CCCNC(=N)N)NC(=O)[C@@H]2CCCN2C(=O)[C@@H](CC(C)C)NC(=O)[C@@H](C)NC(=O)[C@@H](CC(C)C)NC(=O)[C@@H](CCCCN)NC(=O)[C@@H](CC(C)C)NC(=O)[C@@H](C)NC(=O)[C@@H](CC(C)C)NC(=O)[C@@H](CCCCN)NC1=O) [THR 75]
cancer cell-killing activity at 100 uM ([12]; 100 uM concentration): remove the activity

cyc-[PRGPRPVALKLALKLAL] (cyclic; Cyclic peptide; /note=“cyclic peptide”) [THR54]
cancer cell-killing activity [12]: active

Ac-Pro-Arg-Arg-Pro-Gly-Pro-NH2 (Ac-PRRPGP-NH2)
cancer cell lethality / activity in clonogenic assay ([3]; RT112): inactive | change in Cdk1 compared to Cdk4 [5]: not seen

Cyc-[AAGPGGPRGPRPGGPGAA] (cyclic; Cyclic peptide; /note=“cyclic peptide”)
Cell Killing RT112 [6]: - - - | Cell Killing Fibroblasts [7]: - - -

cyc-[PRGPRPvalklalklal] (cyclo(PRGPRP[dV][dA][dL][dK][dL][dA][dL][dK][dL][dA][dL]); SMILES CC(C)C[C@H]1NC(=O)[C@@H](C)NC(=O)[C@@H](C(C)C)NC(=O)[C@@H]2CCCN2C(=O)[C@H](CCCNC(=N)N)NC(=O)[C@@H]2CCCN2C(=O)CNC(=O)[C@H](CCCNC(=N)N)NC(=O)[C@@H]2CCCN2C(=O)[C@@H](CC(C)C)NC(=O)[C@@H](C)NC(=O)[C@@H](CC(C)C)NC(=O)[C@@H](CCCCN)NC(=O)[C@@H](CC(C)C)NC(=O)[C@@H](C)NC(=O)[C@@H](CC(C)C)NC(=O)[C@@H](CCCCN)NC1=O) [THR79]
activity relative to THR54 [12]: 2-4 times | cancer cell-killing activity [12]: showed cancer cell-killing properties

Ac-PRRPGPVKLALKLALKAL-NH2 [THR51C, control for THR51 in which one arginine was switched with a glycine, reference compound]
killing of fibroblasts (cell viability, MTS) [11]: non-specific killing

Cyc-[GGGGGGPRGPRPGGGGGG] (cyclic; Cyclic peptide; /note=“cyclic peptide”)
Cell Killing RT112 [6]: - - - | Cell Killing Fibroblasts [7]: - - -
